Data on nine compounds can be found in patent publication US20250376484A1, “PRMT5 INHIBITORS AND USES THEREOF” (Gilead Sciences, Inc., priority 2024, published 2025).

The subject of series [1] is HCT116 MTAP-deleted cell lines. The experiment in a line: Cell viability assay (CellTitre-Glo), HCT116 MTAP-deleted. The format is cell-based. To be noted: for CC50: Homo sapiens, HCT-116, 168 h, HCT116 MTAP-deleted cells, 7 days of treatment, CTG luminescence, read-out: MTAP^del HCT116 CC50; for Selectivity: WT HCT116 CC50 versus MTAP^del HCT116 CC50. The protocol: (§1) Control compounds were analyzed in parallel each time for quality control.
(§2) In Brief, on Day-1, a serial dilution of stock compounds in DMSO was performed using BioMek liquid handlers and dispensed using Echo acoustic dispenser into 384 well plates. Both tool compounds and sample compounds were spotted in the same plate for a dose response of PRMT5 inhibitors. Compound plates were stored as frozen until the cells were ready for seeding.
(§3) On Day 0, 100 HCT WT or HCT116 MTAP-deleted cells were seeded in compound-containing 384 well plates (50 μl per well) in RPMI 1640 media supplemented with 10% heat inactivated fetal bovine serum, Glutamax and penicillin streptomycin using EL460 liquid dispenser 5 μl cassette (BioTek, part no. 7170011). After equilibrating the plate in room temperature, the cells were incubated for 7 days inside the sealed incubator set at 37° C. with […] and 5% CO2.
(§4) On Day 7, the viability of cells was measured using a CTG assay kit (CellTitre-Glo; Promega cat no. G7573). Shortly, 40 μl per well of luminescent cell viability assay reagent were dispensed using EL460 liquid dispenser 5 μl cassette. CTG luminescence signal was measured using an EnVision plate reader (PerkinElmer) in accordance with manufacturer's instruction. The CC50 values for each compound after 7 days of treatment were calculated using 4 parameter non-linear logistical curve fit.

Series [2] is described as follows: Cell viability assay (CellTitre-Glo), HCT116 WT. In kind it is cell-based. To be noted: human; HCT116 WT cells, 7 days of treatment, CTG luminescence. The protocol:
as §1, §2, §3, §4

Series [3] is described as follows: MDR1/BCRP assay: permeability in cPgp-KO-MDCK-WT cells. In kind it is in vitro ADME. To be noted: dog, test compounds at 1 μM, 2-hour time point, pH 7.4. The protocol:
(§5) cPgp-KO-MDCK-WT, cPgp-KO-MDR1-KI, and cPgp-KO—BCRP—KI cells (all from Sigma) were cultured in Dulbecco's Modification of Eagle's Medium (DMEM) with 4.5 g/L glucose, sodium pyruvate, and GlutaMAX (Gibco) supplemented with 1% Pen/Strep and 10% fetal bovine serum. The cells were maintained in an incubator at 37° C., 90% humidity, and 5% CO2 until reaching confluence over 5 days in 96-well transwell plates. Experiments were conducted using an HBSS donor buffer (Invitrogen) containing 10 mM HEPES and 15 mM glucose, adjusted to pH 7.4. The receiver well contained HBSS buffer supplemented with 1% BSA, 10 mM HEPES, and 15 mM glucose, and the pH was adjusted to 7.4. TEER values were measured to assess membrane integrity after an initial equilibration with BSA-free transport buffer for 15 minutes. The experiment was started by adding dosing solutions containing test compounds at 1 μM. Cells were dosed on the apical (A) side or basolateral (B) side at 100 μl and 200 μl, respectively, to determine forward (A to B) and reverse (B to A) permeability. At the 2-hour time point, 50 μl samples were collected from the receiver compartment. Each compound was tested in 2 separate replicate wells for each condition. All samples were immediately collected into plates, and 50 μL of acetonitrile was added. Subsequently, 350 μl of 30:70 methanol: acetonitrile containing internal standard was added to precipitate proteins and stabilize the test compounds. To test for non-specific binding and compound instability, the total amount of the drug was quantified at the end of the experiment and compared to the material present in the original dosing solution as a percentage of the recovery. All samples were analyzed by LC-MS/MS using electrospray ionization.
(§6) The apparent permeability, Papp, and % recovery were calculated as follows: […]

The next series concerns the target T1, BCRP (Homo sapiens, UniProt Q9UNQ0).
T1 construct: host or cells: MDCK cells with canine Pgp knocked out and BCRP knocked in (cPgp-KO-BCRP-KI)
T1 sequence (Q9UNQ0 1-655): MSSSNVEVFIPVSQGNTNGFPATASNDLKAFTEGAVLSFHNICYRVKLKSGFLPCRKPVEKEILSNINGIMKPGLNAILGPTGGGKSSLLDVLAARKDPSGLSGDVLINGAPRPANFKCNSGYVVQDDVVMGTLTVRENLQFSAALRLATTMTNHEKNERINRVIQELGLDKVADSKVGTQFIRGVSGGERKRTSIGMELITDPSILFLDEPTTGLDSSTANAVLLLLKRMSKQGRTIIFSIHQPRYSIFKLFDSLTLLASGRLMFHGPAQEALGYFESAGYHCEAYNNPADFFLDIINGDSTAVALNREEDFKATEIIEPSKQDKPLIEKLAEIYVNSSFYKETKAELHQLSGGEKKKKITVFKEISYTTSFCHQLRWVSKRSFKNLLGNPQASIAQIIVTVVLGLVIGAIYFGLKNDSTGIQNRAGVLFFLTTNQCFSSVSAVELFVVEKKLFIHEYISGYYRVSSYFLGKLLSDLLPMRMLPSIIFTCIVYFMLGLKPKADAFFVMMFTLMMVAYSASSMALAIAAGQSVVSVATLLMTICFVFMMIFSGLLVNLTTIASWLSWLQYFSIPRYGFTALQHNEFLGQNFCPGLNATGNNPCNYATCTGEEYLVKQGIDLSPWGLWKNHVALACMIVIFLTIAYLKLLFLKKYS
The experiment in a line: MDR1/BCRP assay: efflux ratio in cPgp-KO-BCRP-KI cells. The format is in vitro ADME. The following applies: dog, efflux ratio Papp (B-to-A)/Papp (A-to-B), 2-hour time point, read-out: cPgp-KO-BCRP-KI (ER). As to the method:
as §5, §6

Another series addresses T2, MDR1 (Homo sapiens, UniProt P08183).
T2 construct: host or cells: MDCK cells with canine Pgp knocked out and MDR1 knocked in (cPgp-KO-MDR1-KI)
The experiment in a line: MDR1/BCRP assay: efflux ratio in cPgp-KO-MDR1-KI cells. The format is in vitro ADME. To be noted: dog, MDCK-MDR1, efflux ratio Papp (B-to-A)/Papp (A-to-B), 2-hour time point, read-out: cPgp-KO-MDR1-KI (ER). The protocol:
as §5, §6

T2 sequence (P08183 whole entry): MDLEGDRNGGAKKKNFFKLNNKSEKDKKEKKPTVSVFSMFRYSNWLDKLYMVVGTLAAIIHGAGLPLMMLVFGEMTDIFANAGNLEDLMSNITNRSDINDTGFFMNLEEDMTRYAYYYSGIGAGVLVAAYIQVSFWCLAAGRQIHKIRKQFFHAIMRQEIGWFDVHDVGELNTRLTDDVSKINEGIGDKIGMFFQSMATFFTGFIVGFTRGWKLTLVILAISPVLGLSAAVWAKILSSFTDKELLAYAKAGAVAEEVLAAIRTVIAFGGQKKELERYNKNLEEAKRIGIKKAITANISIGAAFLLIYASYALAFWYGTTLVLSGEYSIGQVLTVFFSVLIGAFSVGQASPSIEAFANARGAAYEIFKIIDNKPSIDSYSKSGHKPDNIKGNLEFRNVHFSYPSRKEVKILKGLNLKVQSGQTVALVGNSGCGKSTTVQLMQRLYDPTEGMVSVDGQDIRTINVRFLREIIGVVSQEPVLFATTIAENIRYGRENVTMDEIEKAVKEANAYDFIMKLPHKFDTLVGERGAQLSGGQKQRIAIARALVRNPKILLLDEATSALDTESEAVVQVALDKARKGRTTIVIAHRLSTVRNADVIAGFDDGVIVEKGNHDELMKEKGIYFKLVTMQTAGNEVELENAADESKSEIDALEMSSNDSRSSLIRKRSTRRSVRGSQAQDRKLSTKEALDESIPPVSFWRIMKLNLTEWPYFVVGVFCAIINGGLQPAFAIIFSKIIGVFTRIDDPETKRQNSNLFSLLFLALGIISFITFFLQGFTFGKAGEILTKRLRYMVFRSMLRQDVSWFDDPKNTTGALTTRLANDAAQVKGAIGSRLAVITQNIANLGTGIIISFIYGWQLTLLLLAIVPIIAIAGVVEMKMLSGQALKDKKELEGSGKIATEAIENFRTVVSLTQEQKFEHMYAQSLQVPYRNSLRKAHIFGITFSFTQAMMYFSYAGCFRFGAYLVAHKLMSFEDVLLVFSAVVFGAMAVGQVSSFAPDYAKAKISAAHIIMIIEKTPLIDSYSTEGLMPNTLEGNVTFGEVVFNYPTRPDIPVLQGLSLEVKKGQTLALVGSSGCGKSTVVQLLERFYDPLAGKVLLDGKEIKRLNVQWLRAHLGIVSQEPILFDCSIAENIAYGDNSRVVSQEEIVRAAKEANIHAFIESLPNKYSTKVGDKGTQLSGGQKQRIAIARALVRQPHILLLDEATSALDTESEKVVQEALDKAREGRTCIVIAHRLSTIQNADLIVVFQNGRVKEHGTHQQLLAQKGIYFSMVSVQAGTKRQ

`Cn1ncc2c(NC(=O)C(=O)N3CCC[C@@H]4Oc5cc(OC(F)F)c(F)cc5[C@@H]43)cnc(N)c21` (relative stereo) [Example Ca-9, cis-N-(7-amino-1-methyl-1H-pyrazolo[3,4-c]pyridin-4-yl)-2-(7-(difluoromethoxy)-8-fluoro-3,4,4a,9b-tetrahydrobenzofuro[3,2-b]pyridin-1(2H)-yl)-2-oxoacetamide]: the CC50 in series [1] was 34 nM. Also, the Selectivity in series [1] came to 119. This compound came in with a CC50 at 7 days in series [2] of 4100 nM. The Papp A→B at 2 h, 1 µM in series [3] worked out at 15.3 ×10⁻⁶ cm/s. Further, the efflux ratio at 2 h, 1 μM at BCRP came to 1.6; on MDR1, 1.8.
Regarding `Cn1ncc2c(NC(=O)C(=O)N3CCC[C@@H]4Oc5cc(C(F)(F)F)ccc5[C@@H]43)cnc(N)c21` [Example Ca-2, N-(7-amino-1-methyl-11H-pyrazolo[3,4-c]pyridin-4-yl)-2-oxo-2-((4aS,9bS)-7-(trifluoromethyl)-3,4,4a,9b-tetrahydrobenzofuro[3,2-b]pyridin-1(2H)-yl)acetamide], in series [1], the CC50 amounted to 12 nM and the Selectivity is recorded as 78. In addition, the CC50 at 7 days in series [2] came to 935 nM. The compound also yielded an apparent permeability from apical to basolateral (Papp A→B) at 2 h, 1 µM in series [3] of 12.2 ×10⁻⁶ cm/s. Also, the efflux ratio at 2 h, 1 μM on BCRP came to 0.7. The efflux ratio at 2 h, 1 μM on MDR1 worked out at 0.8.
For the compound `Cn1ncc2c(NC(=O)C(=O)N3CC4(CC4)C[C@@H]4Oc5cc(C(F)(F)F)ccc5[C@@H]43)cnc(N)c21` [Example Ca-5, N-(7-amino-1-methyl-1H-pyrazolo[3,4-c]pyridin-4-yl)-2-oxo-2-((4aS,9bS)-7-(trifluoromethyl)-4a,9b-dihydro-2H-spiro[benzofuro[3,2-b]pyridine-3,1′-cyclopropan]-1(4H)-yl)acetamide], in series [1], the CC50 worked out at 8 nM. The compound also displayed a Selectivity in series [1] of 73. The compound also had a CC50 at 7 days in series [2] of 589 nM. The same compound yielded a Papp A→B at 2 h, 1 µM in series [3] of 11.6 ×10⁻⁶ cm/s. The efflux ratio at 2 h, 1 μM at BCRP came to 0.44; at MDR1, 0.99.
As for `C[C@@H]1CN(C(=O)C(=O)Nc2cnc(N)c3c2cnn3C)[C@H]2c3ccc(C(F)(F)F)cc3C[C@H]2O1` [Example Ca-10, N-(7-amino-1-methyl-1H-pyrazolo[3,4-c]pyridin-4-yl)-2-((2R,4aS,9aR)-2-methyl-7-(trifluoromethyl)-2,3,9,9a-tetrahydroindeno[2,1-b][1,4]oxazin-4(4aH)-yl)-2-oxoacetamide], in series [1], the CC50 was 28 nM and the Selectivity was determined as 96. Also, in series [2], the midpoint of cytotoxicity, the CC50 at 7 days, lay at 2720 nM. Also, the Papp A→B at 2 h, 1 µM in series [3] amounted to 17.7 ×10⁻⁶ cm/s. Further, on BCRP, the efflux ratio at 2 h, 1 μM turned out to be 1.1. Besides, the efflux ratio at 2 h, 1 μM on MDR1 worked out at 1.
As to `C[C@H]1CN(C(=O)C(=O)Nc2cnc(N)c3c2cnn3C)[C@H]2c3ccc(C(F)(F)F)cc3C[C@H]2O1` [Example Ca-3, N-(7-amino-1-methyl-11H-pyrazolo[3,4-c]pyridin-4-yl)-2-((2S,4aS,9aR)-2-methyl-7-(trifluoromethyl)-2,3,9,9a-tetrahydroindeno[2,1-b][1,4]oxazin-4(4aH)-yl)-2-oxoacetamide], the CC50 in series [1] came out at 38 nM. This compound also had a Selectivity in series [1] of 77. The CC50 at 7 days in series [2] stood at 2940 nM. The Papp A→B at 2 h, 1 µM in series [3] was 12.6 ×10⁻⁶ cm/s. In addition, the efflux ratio at 2 h, 1 μM is 0.7 at BCRP and 1.1 on MDR1.
Turning to `Cn1ncc2c(NC(=O)C(=O)N3CCC[C@@H]4Oc5cc(OC(F)(F)F)cc(F)c5[C@@H]43)cnc(N)c21` [Example Ca-6, N-(7-amino-1-methyl-1H-pyrazolo[3,4-c]pyridin-4-yl)-2-((4aS,9bS)-9-fluoro-7-(trifluoromethoxy)-3,4,4a,9b-tetrahydrobenzofuro[3,2-b]pyridin-1(2H)-yl)-2-oxoacetamide], in series [1], the CC50 came out at 13 nM and the Selectivity stood at 144. Moreover, half-maximal cytotoxicity in series [2] (CC50 at 7 days) was put at 1880 nM. The compound further showed a Papp A→B at 2 h, 1 µM in series [3] of 9.3 ×10⁻⁶ cm/s. At BCRP, the efflux ratio at 2 h, 1 μM amounted to 2.6. Further, the efflux ratio at 2 h, 1 μM at MDR1 was 0.9.
`Cn1ncc2c(NC(=O)C(=O)N3CCC[C@@H]4Oc5cc(Cl)ccc5[C@@H]43)cnc(N)c21` [Example Ca-7, N-(7-amino-1-methyl-1H-pyrazolo[3,4-c]pyridin-4-yl)-2-((4aS,9bS)-7-chloro-3,4,4a,9b-tetrahydrobenzofuro[3,2-b]pyridin-1(2H)-yl)-2-oxoacetamide]: in series [1], the CC50 was 16 nM and the Selectivity was 108. The CC50 at 7 days in series [2] is 1700 nM. This compound gave a Papp A→B at 2 h, 1 µM in series [3] of 21.4 ×10⁻⁶ cm/s. Besides, the efflux ratio at 2 h, 1 μM at BCRP turned out to be 1.1.
As to `Cn1ncc2c(NC(=O)C(=O)N3CC[C@H]4C[C@@H]3c3c(F)cc(C(F)(F)F)cc3O4)cnc(N)c21` [Example Ca-11, N-(7-amino-1-methyl-1H-pyrazolo[3,4-c]pyridin-4-yl)-2-((2S,6R)-7-fluoro-9-(trifluoromethyl)-3,4-dihydro-2H-2,6-methanobenzo[b][1,5]oxazocin-5(6H)-yl)-2-oxoacetamide], in series [1], the CC50 was determined as 18 nM. Further, the Selectivity in series [1] was 115. For the same compound, the CC50 at 7 days in series [2] amounted to 2070 nM. Further, the Papp A→B at 2 h, 1 µM in series [3] was found to be 10.7 ×10⁻⁶ cm/s. Further, the efflux ratio at 2 h, 1 μM at BCRP was 1.3; on MDR1, 1.4.
As for `Cn1ncc2c(NC(=O)C(=O)N3CCC[C@@H]4Oc5cc(C(F)(F)F)cc(F)c5[C@@H]43)cnc(N)c21` [Example Ca-1, N-(7-amino-1-methyl-1H-pyrazolo[3,4-c]pyridin-4-yl)-2-((4aS,9bS)-9-fluoro-7-(trifluoromethyl)-3,4,4a,9b-tetrahydrobenzofuro[3,2-b]pyridin-1(2H)-yl)-2-oxoacetamide], in series [1], the CC50 is 10 nM and the Selectivity was found to be 103. Also, it took 1030 nM to reach half-maximal cytotoxicity in series [2] (CC50 at 7 days). The same compound had a Papp A→B at 2 h, 1 µM in series [3] of 12 ×10⁻⁶ cm/s. In addition, the efflux ratio at 2 h, 1 μM at BCRP came to 0.7. Further, the efflux ratio at 2 h, 1 μM at MDR1 was 1.

Usually CC50 stands for the concentration that lowers cell viability or growth by half. In general, Papp A→B refers to the apparent permeability from the apical to the basolateral side of a cell layer.
